ChEMBL document CHEMBL4715696, “In vitro synergistic anticancer activity of the combination of T-type calcium channel blocker and chemotherapeutic agent in A549 cells” (Bioorg Med Chem Lett, 2016)

Test system: A549
Assay: Decrease in cell cycle associated protein expression in human A549 cells assessed as reduction in CDK2 expression at 10 uM by Western blot analysis
Assay type: functional, cell-based
Conditions: time 6-48 hrs, TDE = time-dependent effect

`CN(C)C(=O)NCCCN(C)C1=Nc2ccccc2C(CC(=O)NCc2ccc(F)cc2)N1c1ccc(C2CCCCC2)cc1` (stereo unspecified) was tested, and the Activity was “Tde”.
